Converted amounts (≈) assume the structure as drawn. Read-outs that look alike come from different tables or passages of the source.
How the values were obtained:
[1] = tested on: Vancomycin-resistant S. aureus NARSA VRS4; experiment: microbe, parasite or virus in culture; type: cell-based, Staphylococcus aureus; settings: for MIC VRSA: Vancomycin-resistant NARSA VRS4
[2] = tested on: S. aureus ATCC 43300 MRSA; experiment: microbe, parasite or virus in culture; type: cell-based, Staphylococcus aureus; settings: Staphylococcus aureus, 24 h
Description: (§1) The compounds, along with standard antibiotics were serially diluted twofold across the wells of 96-well non-binding surface (NBS) polystyrene plates (Corning 3641). […] Standards ranged from 64 to 0.03 µg mL^−1 and compounds from 8 to 0.003 µg mL^−1 with final assay volumes of 100 µL per well. Gram-positive bacteria were cultured in Mueller Hinton broth (MHB) (Bactolaboratories, Cat. no. 211443) at 37 °C overnight. A sample of each culture was then diluted 40-fold in fresh MHB and incubated at 37 °C for 2–3 h. The resultant mid-log phase cultures were added to the compound-containing 96-well plates to give a final cell density of 5 × 10^5 colony forming unit (CFU) mL^−1. All the plates were covered and incubated at 37 °C for 24 h. MICs were the lowest concentration showing no visible growth.

[3] = tested on: S. pneumoniae ATCC 33400; experiment: microbe, parasite or virus in culture; type: cell-based, Streptococcus pneumoniae; settings: Streptococcus pneumoniae, ATCC33400, 24 h
Description: as §1

[4] = tested on: S. pneumoniae ATCC 700677 MDR; experiment: microbe, parasite or virus in culture; type: cell-based, Streptococcus pneumoniae; settings: Streptococcus pneumoniae, ATCC700677, 24 h
Description: as §1

[5] = tested on: Vancomycin-resistant (VanA) Enterococcus faecium ATCC 51559; experiment: microbe, parasite or virus in culture; settings: for MIC VRE: ATCC 51559
Outline: (§2)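 Broth microdilution in Mueller Hinton broth with twofold serial dilutions of compound from 8 to 0.003 µg mL^−1.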

[6] = tested on: Vancomycin-intermediate S. aureus NRS1; experiment: microbe, parasite or virus in culture; settings: for MIC VISA: Vancomycin-intermediate NRS1
Outline: as §2

[7] = tested on: Multi-drug-resistant S. pneumoniae ATCC 700677; experiment: microbe, parasite or virus in culture; settings: for MIC MDR S.P.: ATCC 700677
Outline: as §2

[8] = Cytotoxicity MTT assay; type: cell-based, human; settings: human
Description: Compound cytotoxicity was evaluated against HepG2 (ATCC-®HB-8065 liver hepatoceullular carcinoma) and HEK293 (ATCC®CRL-1573, embryonic kidney) human cell lines using standard (3-(4,5-dimethylthiazol-2-yl)−2,5-diphenyltetrazolium bromide (MTT) assay protocol with slight changes. In brief, HepG2 and HEK293 cells (assessed annually for mycoplasma contamination) were seeded as 1.5 × 10^4 cells per well in a clear 96-well tissue culture treated plate in a final volume of 100 μL in Dulbecco’s Modified Eagle Medium (DMEM)(GIBCO-Invitrogen #11995-073), in which 1% of FBS was added. Cells were incubated for 24 h at 37 °C, 5% CO2 to allow cells to attach to the plates. […] After the incubation, 0.4 mg mL^−1 MTT (3-(4,5-dimethylthiazol-2-yl)−2,5-diphenyltetrazolium bromide) (Invitrogen) was added to each well. The plates were then incubated for 2 h at 37 °C, 5% CO2. The media was removed, and purple formazan crystals were resuspended in 60 μL of DMSO. The absorbance was read at 570 nm using a Polarstar Omega plate reader. The data was then analysed by Prism software. Results are presented as the average percentage of control ± S.D. for each set of duplicate wells using the following equation: percent viability = (ABSTEST – ABSPOSITIVE CTRL / ABSUNTREATED –ABS POSITIVE CTRL)×100.

[9] = Cytotoxicity MTT assay; type: cell-based, human; settings: human; remark: listed apart in the source
Description: Compound cytotoxicity was evaluated against HepG2 (ATCC-®HB-8065 liver hepatoceullular carcinoma) and HEK293 (ATCC®CRL-1573, embryonic kidney) human cell lines using standard (3-(4,5-dimethylthiazol-2-yl)−2,5-diphenyltetrazolium bromide (MTT) assay protocol with slight changes. In brief, HepG2 and HEK293 cells (assessed annually for mycoplasma contamination) were seeded as 1.5 × 10^4 cells per well in a clear 96-well tissue culture treated plate in a final volume of 100 μL in Dulbecco’s Modified Eagle Medium (DMEM)(GIBCO-Invitrogen #11995-073), in which 1% of FBS was added. Cells were incubated for 24 h at 37 °C, 5% CO2 to allow cells to attach to the plates. Compounds prepared at 100 µM to 0.046 µM in threefold dilutions were added into each well and incubated for 24 h at 37 °C, 5% CO2. After the incubation, 0.4 mg mL^−1 MTT (3-(4,5-dimethylthiazol-2-yl)−2,5-diphenyltetrazolium bromide) (Invitrogen) was added to each well. The plates were then incubated for 2 h at 37 °C, 5% CO2. The media was removed, and purple formazan crystals were resuspended in 60 μL of DMSO. The absorbance was read at 570 nm using a Polarstar Omega plate reader. The data was then analysed by Prism software. Results are presented as the average percentage of control ± S.D. for each set of duplicate wells using the following equation: percent viability = (ABSTEST – ABSPOSITIVE CTRL / ABSUNTREATED –ABS POSITIVE CTRL)×100.

[10] = tested on: Methicillin-resistant S. aureus ATCC 43300; experiment: microbe, parasite or virus in culture; settings: for MIC MRSA: ATCC 43300, 24 h
Outline: as §2

[11] = Haemolysis assay; type: cell-based; settings: human, whole blood
Description: Haemolytic activity was measured as previously described with slight modifications, [45]. Fresh human venal blood was collected from healthy volunteers and pretreated with the anticoagulant sodium citrate. Serial twofold dilutions of each antibiotic, dissolved in 0.9% NaCl solution, were added to fresh human whole blood (50% final, vol:vol) to the final volume of 80 μL and incubated at 37 °C for 3 h on a horizontal shaker at 200 rpm. For negative and positive controls, human whole blood in 0.9% NaCl solution (A blank) and in sdH2O (A water) were used, respectively. After incubation, both test and A blank were mixed with 1 mL 0.9% NaCl solution, or sdH2O for the complete […] A water. After centrifugation of samples at 2500 rpm (700 × g) for 5 min, the release of haemoglobin was monitored by measuring the absorbance (A sample) of the supernatant at 540 nm using BMG Labtech PolarStar Omega multimode reader. The percentage of haemolysis was calculated according to the equation: %haemolysis=Asample-Ablank∕Awater-Ablank×100

[12] = in vitro; settings: human, 50% human plasma (pooled, sodium heparin) in PBS, pH 7.4
[13] = 37 °C, 20 µM

**Q.** What does the source list for `CCCCCCCCCCNCCN[C@@]1(C)C[C@H](O[C@H]2[C@H](Oc3c4cc5cc3Oc3ccc(cc3Cl)[C@@H](O)[C@@H](NC(=O)[C@@H](CC(C)C)NC)C(=O)N[C@@H](CC(N)=O)C(=O)N[C@H]5C(=O)N[C@H]3C(=O)N[C@H](C(=O)N[C@H](C(=O)O)c5cc(O)c(CNCP(=O)(O)O)c(O)c5-c5cc3ccc5O)[C@H](O)c3ccc(c(Cl)c3)O4)O[C@H](CO)[C@@H](O)[C@@H]2O)O[C@@H](C)[C@H]1O` [Compound 2, Telavancin]?
**A.** MIC ([1]; Staphylococcus aureus, VRSA, read-out: MIC VRSA): 1 µg/mL (≈ 0.57 µM); MIC ([2]; read-out: MIC S. aureus ATCC 43300 MRSA, 1% Survanta): 0.126 µg/mL (≈ 0.0715 µM); MIC ([2]; read-out: MIC S. aureus ATCC 43300 MRSA, 5% Survanta): 0.25 to 0.5 µg/mL (≈ 0.142 to 0.285 µM); MIC ([2]; read-out: MIC S. aureus ATCC 43300 MRSA, no added Survanta): 0.125 µg/mL (≈ 0.0712 µM); MIC ([3]; read-out: MIC S. pneumoniae ATCC 33400, 1% Survanta): 0.25 µg/mL (≈ 0.142 µM); MIC ([3]; read-out: MIC S. pneumoniae ATCC 33400, 5% Survanta): 0.5 µg/mL (≈ 0.285 µM); MIC ([3]; read-out: MIC S. pneumoniae ATCC 33400, no added Survanta): 0.125 to 0.25 µg/mL (≈ 0.0712 to 0.142 µM); MIC ([4]; read-out: MIC S. pneumoniae ATCC 700677 MDR, 1% Survanta): 0.06 to 0.125 µg/mL (≈ 0.0342 to 0.0712 µM); MIC ([4]; read-out: MIC S. pneumoniae ATCC 700677 MDR, 5% Survanta): 0.25 µg/mL (≈ 0.142 µM); MIC ([4]; read-out: MIC S. pneumoniae ATCC 700677 MDR, no added Survanta): 0.06 to 0.125 µg/mL (≈ 0.0342 to 0.0712 µM); MIC ([5]; Enterococcus faecium, ATCC51559 / VRE, read-out: MIC VRE): 2 µg/mL (≈ 1.14 µM); MIC ([6]; Staphylococcus aureus, NRS1 / VISA, read-out: MIC VISA): 0.25 µg/mL (≈ 0.142 µM); MIC ([7]; Streptococcus pneumoniae, ATCC700677, read-out: MIC MDR S.P.): 0.06 µg/mL (≈ 0.0342 µM); CC50 at 24 h ([8]; 24 h, MTT, 1% FBS, read-out: Cytotoxicity CC50 HepG2): > 100 µM; CC50 at 24 h ([9]; 24 h, MTT, 1% FBS, read-out: Cytotoxicity CC50 HEK293): > 100 µM; MIC ([10]; Staphylococcus aureus, ATCC43300|MRSA, 24 h, read-out: MIC MRSA, S. aureus ATCC 43300, NBS plates, MHB, 24 h, substance alone): 0.03 µg/mL (≈ 0.0171 µM)

**Q.** Which “MIC VRSA” value [1] does the source give for `CCCCCCCCCCC(=O)N[C@@H](CCCCN)C(=O)N[C@@H](CCCCN)C(=O)N[C@@H](CCCCNC(=O)[C@H]1NC(=O)[C@H]2NC(=O)[C@H](NC(=O)[C@@H]3NC(=O)[C@H](CC(N)=O)NC(=O)[C@H](NC(=O)[C@@H](CC(C)C)NC)[C@H](O)c4ccc(c(Cl)c4)Oc4cc3cc(c4O[C@@H]3O[C@H](CO)[C@@H](O)[C@H](O)[C@H]3O[C@H]3C[C@](C)(N)[C@H](O)[C@H](C)O3)Oc3ccc(cc3Cl)[C@H]2O)c2ccc(O)c(c2)-c2c(O)cc(O)cc21)C(=O)NC` [Compound 22, nC10CO-KK-K(Vancomycin)-NHMe] here?
**A.** 0.5 µg/mL (≈ 0.248 µM)

**Q.** What about the “MIC VRE” value [5] of the same compound?
**A.** 4 µg/mL (≈ 1.98 µM)

**Q.** And the “MIC VISA” value [6]?
**A.** 0.125 µg/mL (≈ 0.062 µM)

**Q.** What about the “MIC MDR S.P.” value [7] of the same compound?
**A.** 15 ng/mL (≈ 0.00744 µM)

**Q.** And the hemolysis at 3 h ([11]; 100 µg mL-1)?
**A.** 1.9%

**Q.** What about the hemolysis at 3 h ([11]; 1600 µg mL-1) of the same compound?
**A.** 2.7%

**Q.** What about the CC50 at 24 h [8] of the same compound?
**A.** 80 µM

**Q.** And the CC50 at 24 h [9]?
**A.** 47 µM

**Q.** And the “MIC MRSA” value [10]?
**A.** 15 ng/mL (≈ 0.00744 µM)

**Q.** With `CN[C@H](CC(C)C)C(=O)N[C@H]1C(=O)N[C@@H](CC(N)=O)C(=O)N[C@H]2C(=O)N[C@H]3C(=O)N[C@H](C(=O)N[C@H](C(=O)NCCCC[C@H](NC(=O)[C@H](CCCCN)NC(=O)[C@H](CCCCN)NC(C)=O)C(=O)O)c4cc(O)cc(O)c4-c4cc3ccc4O)[C@H](O)c3ccc(c(Cl)c3)Oc3cc2cc(c3O[C@@H]2O[C@H](CO)[C@@H](O)[C@H](O)[C@H]2O[C@H]2C[C@](C)(N)[C@H](O)[C@H](C)O2)Oc2ccc(cc2Cl)[C@H]1O` [Compound 25, Ac-KK-K(Vancomycin)-OH] as the compound, how does the “MIC VRSA” value [1] read?
**A.** >8 µg/mL

**Q.** And the CC50 at 24 h [8]?
**A.** > 500 µM

**Q.** What about the CC50 at 24 h [9] of the same compound?
**A.** > 500 µM

**Q.** What does the source list for `CCCCCCCCCCCCCC(=O)N[C@@H](CCCCN)C(=O)N[C@@H](CCCCN)C(=O)N[C@@H](CCCCN)C(=O)N[C@@H](CSSCCNC(=O)[C@H]1NC(=O)[C@H]2NC(=O)[C@H](NC(=O)[C@@H]3NC(=O)[C@H](CC(N)=O)NC(=O)[C@H](NC(=O)[C@@H](CC(C)C)NC)[C@H](O)c4ccc(c(Cl)c4)Oc4cc3cc(c4O[C@@H]3O[C@H](CO)[C@@H](O)[C@H](O)[C@H]3O[C@H]3C[C@](C)(N)[C@H](O)[C@H](C)O3)Oc3ccc(cc3Cl)[C@H]2O)c2ccc(O)c(c2)-c2c(O)cc(O)cc21)C(=O)O` [Compound 15, nC13CO-KKKC(SCH 2 CH 2 NH-Vancomycin)-OH]?
**A.** MIC VRE [5]: 0.02 µg/mL (≈ 0.009 µM); MIC VISA [6]: 0.02 µg/mL (≈ 0.009 µM); MIC MDR S.P. [7]: <3 ng/mL; remaining at 1 h, 20 µM [12]: 77%; remaining at 3 h, 20 µM [12]: 64%; remaining at 6 h, 20 µM [12]: 51%; remaining at 24 h, 20 µM [12]: 3%; CC50 at 24 h [8]: 11 µM; % compound remaining after incubation in 50% human plasma, 0h [13]: 100%; CC50 at 24 h [9]: 18 µM; MIC MRSA [10]: <3 ng/mL
